Results on one molecule are retold here after patent US20100183527A1, “Cosmetic Compositions Comprising Sclareolide and Hesperidin Methyl Chalcone” (COGNIS IP MANAGEMENT GMBH, priority 2007, published 2010).

What all share (type): cell-based
For series [1], the system named is Melanocytes (B16 cell line). The experiment in a line: Melanogenesis stimulation assay, level of melanin (optical density at 475 nm). The note with it: 3 days incubation, mean +/- SEM. How it is done:
(§1) Melanocytes (B16 cell line) were inoculated in standard medium of cell culture with foetal calf serum (FCS). After an incubation of 3 day at 37° C. and CO2=5%, growth medium was exchanged for standard medium with a range of concentrations for each active ingredient to be tested and a control without ingredient. After an incubation of 3 days, the level of melanin was measured by recording the optical density at 475 nm. After washing the cells by a balanced salt solution, and homogenisation in a solution of 0.1 M NaOH, the number of viable cells was determined by evaluation of the level of cellular proteins (Bradford's method). The results are expressed in % against control (cell culture medium without compound) as a mean+/−SEM (Standard Error of Mean) on 2 or 3 assays, each in triplicate.

Series [2] deals with Melanocytes (B16 cell line). In words: Number of viable cells by level of cellular proteins (Bradford's method), Example 1. To be noted: 3 days incubation, mean +/- SEM. The method, then:
as §1

In series [3] the test system is Melanocytes (B16 cell line). In words: Melanogenesis stimulation assay for combination, level of intracellular melanin (optical density at 475 nm). To be noted: for rate of melanin: mean +/- SEM. How it is done:
(§2) Melanocytes (B16 cell line) were inoculated in standard medium of cell culture with foetal calf serum (FCS). After an incubation for 3 days at 37° C. and CO2=5%, growth medium was exchanged for standard medium with a range of concentrations for each active ingredient to be tested and a control without ingredient. Combinations of active ingredients were tested on the same cultures, in parallel with active ingredients alone. After an incubation of 3 days, the cells were washed by a balanced salt solution, and homogenised in a solution of 0.1 M NaOH. The number of viable cells was determined by evaluation of the level of cellular proteins (Bradford's method) and the level of intracellular melanin was measured by recording the optical density at 475 nm.
(§3) The results are expressed in % against control (cell culture medium without compound) as a mean+/−SEM (Standard Error of Mean) on 5 assays, each in triplicate.

For series [4], the system named is Melanocytes (B16 cell line). In words: Number of viable cells by level of cellular proteins (Bradford's method), Example 2 combination. To be noted: for Amount of cellular proteins: mean +/- SEM. How it is done: as §2, §3
Setting [5] is: Sclareolide 0.000025 % (w/v) alone.
[6] abbreviates: Sclareolide 0.000050 % (w/v) alone.

With `CC1(C)CCC[C@]2(C)[C@H]3CC(=O)O[C@]3(C)CC[C@@H]12` [Sclareolide, (3aR,5aS,9aS,9bR)— decahydro-3a,6,6,9a-tetramethyl naphtho(2,1-b)furan-2(1H)-one], the Melanin level in series [1] (Dose 0.0003 % (w/v)) is recorded as 174 +/− 55 %/control; in series [1] (Dose 0.001 % (w/v)), 286 +/− 83 %/control. Moreover, the “Protein level (rate of cellular proteins)” value in series [2] (Dose 0.0003 % (w/v)) is reported as 89 +/− 11 %/control; in series [2] (Dose 0.001 % (w/v)), 83 +/− 17 %/control. The figures for the rate of melanin in series [3] (setting [5]) and in series [3] (setting [6]) were 116 +/− 7 %/control and 120 +/− 6 %/control, respectively. For the same molecule, the “rate of melanin synthesis / efficacy (in words)” value in series [3] (very low doses (Table 2)) is reported as “increased the rate of melanin synthesis”. The “Amount of cellular proteins” value is 97 +/− 18 %/control in series [4] (setting [5]) and 106 +/− 10 %/control in series [4] (setting [6]). Also, the “toxic effects, decrease of amount of cellular proteins (in words)” value in series [4] (concentrations of Table 3, tested separately or mixed) is on record as “do not show any toxic effects”.
